Assay results as given in US20110217309A1, “BIOLOGICAL MARKERS PREDICTIVE OF ANTI-CANCER RESPONSE TO INSULIN-LIKE GROWTH FACTOR-1 RECEPTOR KINASE INHIBITORS” (priority 2010, published 2011).

Legend:
[1] = test system: SKNAS tumors; assay: Tumor xenograft study; conditions: treatment in vivo for 10-14 days
[2] = test system: FaDu tumors; assay: Tumor xenograft study; conditions: treatment in vivo for 10-14 days
[3] = test system: BxPC3 tumors; assay: Tumor xenograft study; conditions: treatment in vivo for 10-14 days
[4] = test system: H295R tumors; assay: Tumor xenograft study; conditions: treatment in vivo for 10-14 days
[5] = test system: OVCAR-4, SKOV-3, OVCAR-3, OVCAR-8, CaOV3-5, and IGROV-1; assay: Cell Titer Glo proliferation assay, K-RAS wild-type OvCa lines; type: cell-based, human; conditions: other six OvCa cell lines of the panel, WT KRAS, 72 hours
Text: KRAS mutation status, as reported by the Sanger Wellcome Trust, is noted. Results shown are typical of three or more independent experiments. Grey symbols indicate data for K-RAS mutant (mt) cell lines OVCAR-5 and MDAH2774. Black symbols indicate data for K-RAS wild-type (wt) cell lines OVCAR-4, SKOV-3, OVCAR-3, OVCAR-8, CaOV3-5, and IGROV-1. Cell Lines and Culture. Human cancer cell lines, were obtained from American Type Culture Collection (ATCC, Manassas, Va.), or the following additional indicated sources, and cultured in media as described. […] The basis of the assay is a luminescent quantitation of ATP present in a cell culture plate well. […] The assay utilizes a substrate that binds ATP to produce a luminescent signal, which can be read on a luminometer. […] Results were calculated as a fraction of the DMSO controlled cells.

[6] = test system: MDAH-2774 ovarian tumor cells; assay: Caspase 3/7 Glo apoptosis assay; type: cell-based, human; conditions: with 10 nM pactitaxel
Method: Measurement of apoptosis: Induction of apoptosis as measured by increased Caspase 3/7 activity was determined using the Caspase 3/7 Glo assay (Promega Corporation, Madison, Wis.). Cell lines were seeded at a density of 3000 cells per well in a 96-well plate. 24 hours after plating, cells were dosed with compounds. The signal for Caspase 3/7 Glo was determined 24 hours after dosing. The caspase 3/7 activity was normalized to cell number per well, using a parallel plate treated with Cell Titer Glo (Promega Corporation, Madison, Wis.). Signal for each well was normalized using the following formula: Caspase 3/7 Glo luminescence units/Cell Titer Glo fraction of DMSO control. All graphs were generated using PRISM® software (Graphpad Software, San Diego, Calif.).

[7] = test system: HCC70; assay: Cell Titer Glo proliferation assay, 88 cell line panel; type: cell-based, human; conditions: HCC70 breast cancer, PTEN mutant, 72 hours
Method: (§1) Proliferation Assay. […] The basis of the assay is a luminescent quantitation of ATP present in a cell culture plate well. In essence, the greater the number of viable cells in the well, the greater the level of ATP present. The assay utilizes a substrate that binds ATP to produce a luminescent signal, which can be read on a luminometer. Unless otherwise noted, the manufacturer's instructions were followed exactly. Briefly, on Day 1, cells were plated in 120 μl of 10% serum-containing growth media at a density of 4000 cells/well in a white polystyrene 96 well assay plate. […] After 72 h incubation with the inhibitor, the cells were assayed. Results were calculated as a fraction of the DMSO controlled cells.
(§2) This included cell lines representing ovarian cancer (A2780 and EFO-27), SCCHN (HSC-4), SCLC (NCI-H446), CRC (KM12), lymphoma (MC116), breast cancer (BT549 and HCC70), and prostate cancer (PC3).

[8] = test system: KM12; assay: as above; type: cell-based, human; conditions: KM12 CRC, PTEN mutant, 72 hours
Method: as §1, §2

[9] = test system: BT549; assay: as above; type: cell-based, human; conditions: BT549 breast cancer, PTEN mutant, 72 hours
Method: as §1, §2

[10] = test system: PC3; assay: as above; type: cell-based, human; conditions: PC3 prostate cancer, PTEN mutant, 72 hours
Method: as §1, §2

[11] = test system: NCI-H446; assay: as above; type: cell-based, human; conditions: NCI-H446 SCLC, PTEN mutant, 72 hours
Method: as §1, §2

[12] = test system: MC116; assay: as above; type: cell-based, human; conditions: MC116 lymphoma, PTEN mutant, 72 hours
Method: as §1, §2

[13] = test system: A2780; assay: as above; type: cell-based, human; conditions: A2780 ovarian cancer, PTEN mutant, 72 hours
Method: as §1, §2

In the case of `C[C@]1(O)C[C@@H](c2nc(-c3ccc4ccc(-c5ccccc5)nc4c3)c3c(N)nccn32)C1` [OSI-906, cis-3-[8-amino-1-(2-phenyl-quinolin-7-yl)-imidazo[1,5-a]pyrazin-3-yl]-1-methyl-cyclobutanol], the “% TGI (tumor growth inhibition)” value [1] was 71%, the “% TGI (tumor growth inhibition)” value [2] was under 30% and the “% TGI (tumor growth inhibition)” value [3] was 56%. The “% TGI (tumor growth inhibition)” value [4] was 85%, the sensitivity of proliferation [5] was “relatively insensitive” and the induction of apoptosis [6] was “enhances the induction of apoptosis”. For the same compound, the “sensitivity to OSI-906” value [7] was “insensitive (insensitive (EC50>10 μM))”, the “sensitivity to OSI-906” value [8] was “insensitive (insensitive (EC50>10 μM))” and the “sensitivity to OSI-906” value [9] was “insensitive (insensitive (EC50>10 μM))”. The “sensitivity to OSI-906” value [10] was “insensitive (insensitive (EC50>10 μM))”, the “sensitivity to OSI-906” value [11] was “insensitive (insensitive (EC50>10 μM))” and the “sensitivity to OSI-906” value [12] was “insensitive (insensitive (EC50>10 μM))”. For the same compound, the “sensitivity to OSI-906” value [13] was “insensitive (insensitive (EC50>10 μM))”.
